Laboratory results taken from patent publication US20230066156A1, “6-SUBSTITUTED, 22-CYANO HYODEOXYCHOLANIC ANALOGUES AND USES THEREOF” (PRECISION BIO-THERAPEUTICS S.R.L., priority 2019, published 2023).

Tested on: THP1 cells
Test: Relative mRNA expression of pro- and anti-inflammatory genes by Real-Time PCR in LPS-activated THP1 cells
Format: cell-based, human
Settings: 10 μM, normalized to GAPDH, FIG. 1
Description: THP-1, a human monocytic cell line derived from an acute monocytic leukemia patient, were cultured and maintained at 37° C. and 5% CO2 in RPMI with 10% FBS, 1% glutamine and 1% penicillin/streptomycin. THP1 cells (1.5×10^6) were serum starved for 6 h and then classically activated with LPS (1 ng/ml, L2880; Sigma-Aldrich), and exposed or not to GPBAR1 agonists previously tested in transactivation assay.
Furthermore, selected compounds exert in vitro activity on GPBAR1-target genes reducing the production of pro-inflammatory cytokines (IL-6, TNF-α, IL-1β, […]) in THP1 monocytic/macrophage cells primed with LPS and co-incubated with or without the selected compounds at 10 μM (FIG. 1).
Values are normalized relative to GAPDH mRNA and are expressed as mean±SEM (n=3); #p<0.05.
Colon samples were immediately frozen in liquid nitrogen and stored at −80° C. until used, mechanically homogenated with the aid of a pestle, and the obtained materials re-suspended in 1 ml of Trizol (Thermo Scientific™). THP1 cells were spin-dried at 1300 rpm and then the pellets were re-suspended in 1 ml of Trizol (Thermo Scientific™). The RNA was extracted according to the manufacturer's protocol. After purification from genomic DNA by DNase-I treatment (Thermo Scientific™), 1 μg of RNA from each sample was reverse-transcribed using random hexamer primers with Superscript-II (Thermo Scientific™) in a 20 μL reaction volume; 10 ng cDNA were amplified in a 20 μL solution containing 200 nM of each primer and 10 μL of SYBR Select Master Mix (Thermo Scientific™). All reactions were performed in triplicate, and the thermal cycling conditions were as follows: 3 min at 95° C., followed by 40 cycles of 95° C. for 15 s, 56° C. for 20 s and 72° C. for 30 s, using a Step One Plus machine (Applied Biosystem). The relative mRNA expression was calculated accordingly to the 2^(−ΔCt) method comparing the expression of different genes to that of GAPDH housekeeping. Primers were designed using the software PRIMER3 (http://frodo.wi.mit.edu/primer3/) using published data obtained from the NCBI database. The primer used for murine samples were conducted as follows (forward and reverse): Gapdh (for […] (SEQ ID: 1); rev […] (SEQ ID: 2)), Tnf-α (for […] (SEQ ID: 3); rev […] (SEQ ID: 4)), Il-6 (for […] (SEQ ID: 5); rev […] (SEQ ID: 6)), Il-1β (for […] (SEQ ID: 7); rev […] (SEQ ID: 8)), Il-10 (for […] (SEQ ID: 9); rev […] (SEQ ID: 10)), Gpbar1 (for […] (SEQ ID: 11); rev […] (SEQ ID: 12)). […]

CC[C@]1(O)C[C@H]2[C@@H]3CC[C@H]([C@H](C)CC#N)[C@@]3(C)CC[C@@H]2[C@@]2(C)CC[C@@H](O)C[C@@H]12 [PBT110B, 3α,6α-dihydroxy-6β-ethyl-24-nor-5β-cholan-23-nitrile]
IL1-β production (relative mRNA expression): significantly reduced | IL-6 production (relative mRNA expression): significantly reduced | TNF-α production (relative mRNA expression): significantly reduced | expression of anti-inflammatory gene IL-10: increased
